According to paper PMC10962963 (Proceedings of the National Academy of Sciences of the …, 2024):

T1: polycystin-2 (PC2, TRPP2), PC2_F604P (Homo sapiens, UniProt Q13563, F604P)
T1 sequence (Q13563 185-719 F604P): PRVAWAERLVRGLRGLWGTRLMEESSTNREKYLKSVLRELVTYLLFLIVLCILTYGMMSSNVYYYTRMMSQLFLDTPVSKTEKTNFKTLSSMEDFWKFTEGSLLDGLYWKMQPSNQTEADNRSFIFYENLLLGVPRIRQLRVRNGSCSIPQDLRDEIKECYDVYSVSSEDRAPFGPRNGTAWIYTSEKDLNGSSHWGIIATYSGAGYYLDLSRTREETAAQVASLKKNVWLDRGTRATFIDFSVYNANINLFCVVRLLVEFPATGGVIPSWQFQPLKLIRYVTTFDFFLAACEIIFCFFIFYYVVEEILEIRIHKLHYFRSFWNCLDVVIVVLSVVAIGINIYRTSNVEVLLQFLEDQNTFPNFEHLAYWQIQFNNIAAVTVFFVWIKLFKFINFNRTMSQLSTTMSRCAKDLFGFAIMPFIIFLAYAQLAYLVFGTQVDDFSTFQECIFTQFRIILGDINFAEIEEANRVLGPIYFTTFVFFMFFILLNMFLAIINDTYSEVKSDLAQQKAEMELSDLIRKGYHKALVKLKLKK


Assays:
[1] = molecular target: T1, polycystin-2 (PC2, TRPP2), PC2_F604P; test: cryo-EM structure; format: cell-based
[2] = molecular target: the molecule itself; test: cryo-EM structure

Molecule | EC50 [1] [µM] | binding result [2]
CC1CC(C)(C)N(C(=O)CN2C(=O)c3ccccc3C2=O)c2ccccc21 (centres unmarked) [ML-SA1] | 5.2 | –
truncated PC2_F604P protein containing the fragment Pro185-Lys719 (domain or fragment, human, UniProt Q13563 185-719, looked up) PRVAWAERLVRGLRGLWGTRLMEESSTNREKYLKSVLRELVTYLLFLIVLCILTYGMMSSNVYYYTRMMSQLFLDTPVSKTEKTNFKTLSSMEDFWKFTEGSLLDGLYWKMQPSNQTEADNRSFIFYENLLLGVPRIRQLRVRNGSCSIPQDLRDEIKECYDVYSVSSEDRAPFGPRNGTAWIYTSEKDLNGSSHWGIIATYSGAGYYLDLSRTREETAAQVASLKKNVWLDRGTRATFIDFSVYNANINLFCVVRLLVEFPATGGVIPSWQFQPLKLIRYVTTFDFFLAACEIIFCFFIFYYVVEEILEIRIHKLHYFRSFWNCLDVVIVVLSVVAIGINIYRTSNVEVLLQFLEDQNTFPNFEHLAYWQIQFNNIAAVTVFFVWIKLFKFINFNRTMSQLSTTMSRCAKDLFGFAIMPFIIFLAYAQLAYLVFGTQVDDFSTFQECIFTQFRIILGDINFAEIEEANRVLGPIYFTTFVFFMFFILLNMFLAIINDTYSEVKSDLAQQKAEMELSDLIRKGYHKALVKLKLKK | – | binds
